Data published in publication PMC9487510, “A Novel Oral GyrB/ParE Dual Binding Inhibitor Effective against Multidrug-Resistant Neisseria gonorrhoeae and Other High-Threat Pathogens” (Antimicrobial Agents and Chemotherapy, 2022).
Converted amounts (≈) assume the structure as drawn. Read-outs that look alike come from different tables or passages of the source.

Test system: N. gonorrhoeae clinical isolates
Test: MIC, agar dilution (CLSI)
Format: cell-based, Neisseria gonorrhoeae
Details: for MIC: read-out: MIC

MIC range (96 clinical isolates): 0.016 to 4 µg/mL
MIC (Neisseria gonorrhoeae, strain CDC1 (GCREF2012 016)): 0.125 µg/mL (≈ 0.276 µM)
MIC (Neisseria gonorrhoeae, strain CDC2 (GCREF2012 045)): 0.125 µg/mL (≈ 0.276 µM)
MIC (Neisseria gonorrhoeae, strain CDC3 (GCREF2013 013)): 0.125 µg/mL (≈ 0.276 µM)
MIC (Neisseria gonorrhoeae, strain CDC4 (GCREF2013 030)): 0.125 µg/mL (≈ 0.276 µM)
MIC (Neisseria gonorrhoeae, strain CDC5 (GCREF2012 001)): 0.125 µg/mL (≈ 0.276 µM)
MIC (Neisseria gonorrhoeae, strain CDC6 (GCREF2012 002)): 0.25 µg/mL (≈ 0.551 µM)
MIC (Neisseria gonorrhoeae, strain CDC8 (GCREF2012 004)): 0.125 µg/mL (≈ 0.276 µM)
MIC (Neisseria gonorrhoeae, strain CDC9 (GCREF2012 005)): 0.125 µg/mL (≈ 0.276 µM)
MIC (Neisseria gonorrhoeae, strain CDC10 (GCREF2012 006)): 0.125 µg/mL (≈ 0.276 µM)
MIC (Neisseria gonorrhoeae, strain CDC11 (GCREF2012 007)): 0.125 µg/mL (≈ 0.276 µM)
MIC (Neisseria gonorrhoeae, strain CDC12 (GCREF2012 008)): 0.25 µg/mL (≈ 0.551 µM)
MIC (Neisseria gonorrhoeae, strain CDC13 (GCREF2012 009)): 0.063 µg/mL (≈ 0.139 µM)
MIC (Neisseria gonorrhoeae, strain CDC14 (GCREF2012 010)): 0.25 µg/mL (≈ 0.551 µM)
MIC (Neisseria gonorrhoeae, strain CDC15 (GCREF2012 011)): 0.031 µg/mL (≈ 0.0684 µM)
MIC (Neisseria gonorrhoeae, strain CDC16 (GCREF2012 012)): 4 µg/mL (≈ 8.82 µM)
MIC (Neisseria gonorrhoeae, strain CDC18 (GCREF2012 014)): 0.063 µg/mL (≈ 0.139 µM)
MIC (Neisseria gonorrhoeae, strain CDC19 (GCREF2012 015)): 0.125 µg/mL (≈ 0.276 µM)
MIC (Neisseria gonorrhoeae, strain CDC20 (GCREF2012 017)): 0.125 µg/mL (≈ 0.276 µM)
MIC (Neisseria gonorrhoeae, strain CDC21 (GCREF2012 018)): 0.25 µg/mL (≈ 0.551 µM)
MIC (Neisseria gonorrhoeae, strain CDC22 (GCREF2012 019)): 0.031 µg/mL (≈ 0.0684 µM)
MIC (Neisseria gonorrhoeae, strain CDC23 (GCREF2012 020)): 0.125 µg/mL (≈ 0.276 µM)
MIC (Neisseria gonorrhoeae, strain CDC24 (GCREF2012 021)): 0.063 µg/mL (≈ 0.139 µM)
MIC (Neisseria gonorrhoeae, strain CDC25 (GCREF2012 022)): 0.25 µg/mL (≈ 0.551 µM)
MIC (Neisseria gonorrhoeae, strain CDC26 (GCREF2012 023)): 0.063 µg/mL (≈ 0.139 µM)
MIC (Neisseria gonorrhoeae, strain CDC27 (GCREF2012 024)): 0.063 µg/mL (≈ 0.139 µM)
MIC (Neisseria gonorrhoeae, strain CDC28 (GCREF2012 025)): 0.25 µg/mL (≈ 0.551 µM)
MIC (Neisseria gonorrhoeae, strain CDC29 (GCREF2012 026)): 0.125 µg/mL (≈ 0.276 µM)
MIC (Neisseria gonorrhoeae, strain CDC30 (GCREF2012 027)): 0.125 µg/mL (≈ 0.276 µM)
MIC (Neisseria gonorrhoeae, strain CDC31 (GCREF2012 028)): 0.25 µg/mL (≈ 0.551 µM)
MIC (Neisseria gonorrhoeae, strain CDC32 (GCREF2012 029)): 0.125 µg/mL (≈ 0.276 µM)
MIC (Neisseria gonorrhoeae, strain CDC33 (GCREF2012 030)): 0.5 µg/mL (≈ 1.1 µM)
MIC (Neisseria gonorrhoeae, strain CDC34 (GCREF2012 031)): 0.063 µg/mL (≈ 0.139 µM)
MIC (Neisseria gonorrhoeae, strain CDC35 (GCREF2012 032)): 0.25 µg/mL (≈ 0.551 µM)
MIC (Neisseria gonorrhoeae, strain CDC36 (GCREF2012 033)): 0.063 µg/mL (≈ 0.139 µM)
MIC (Neisseria gonorrhoeae, strain CDC37 (GCREF2012 034)): 0.125 µg/mL (≈ 0.276 µM)
MIC (Neisseria gonorrhoeae, strain CDC38 (GCREF2012 035)): 0.063 µg/mL (≈ 0.139 µM)
MIC (Neisseria gonorrhoeae, strain CDC39 (GCREF2012 036)): 0.25 µg/mL (≈ 0.551 µM)
MIC (Neisseria gonorrhoeae, strain CDC40 (GCREF2012 037)): 0.125 µg/mL (≈ 0.276 µM)
MIC (Neisseria gonorrhoeae, strain CDC41 (GCREF2012 038)): 0.25 µg/mL (≈ 0.551 µM)
MIC (Neisseria gonorrhoeae, strain CDC42 (GCREF2012 039)): 0.25 µg/mL (≈ 0.551 µM)
MIC (Neisseria gonorrhoeae, strain CDC43 (GCREF2012 040)): 0.25 µg/mL (≈ 0.551 µM)
MIC (Neisseria gonorrhoeae, strain CDC45 (GCREF2012 042)): 0.25 µg/mL (≈ 0.551 µM)
MIC (Neisseria gonorrhoeae, strain CDC46 (GCREF2012 043)): 0.125 µg/mL (≈ 0.276 µM)
MIC (Neisseria gonorrhoeae, strain CDC47 (GCREF2012 044)): 0.125 µg/mL (≈ 0.276 µM)
MIC (Neisseria gonorrhoeae, strain CDC48 (GCREF2012 046)): 0.125 µg/mL (≈ 0.276 µM)
MIC (Neisseria gonorrhoeae, strain CDC49 (GCREF2012 047)): 0.25 µg/mL (≈ 0.551 µM)
MIC (Neisseria gonorrhoeae, strain CDC50 (GCREF2012 048)): 0.25 µg/mL (≈ 0.551 µM)
MIC (Neisseria gonorrhoeae, strain CDC51 (GCREF2012 049)): 0.125 µg/mL (≈ 0.276 µM)
MIC (Neisseria gonorrhoeae, strain CDC52 (GCREF2012 050)): 0.25 µg/mL (≈ 0.551 µM)
MIC (Neisseria gonorrhoeae, strain CDC53 (GCREF2012 051)): 0.25 µg/mL (≈ 0.551 µM)
MIC (Neisseria gonorrhoeae, strain CDC54 (GCREF2012 052)): 0.25 µg/mL (≈ 0.551 µM)
MIC (Neisseria gonorrhoeae, strain CDC55 (GCREF2013 001)): 0.125 µg/mL (≈ 0.276 µM)
MIC (Neisseria gonorrhoeae, strain CDC56 (GCREF2013 002)): 0.25 µg/mL (≈ 0.551 µM)
MIC (Neisseria gonorrhoeae, strain CDC57 (GCREF2013 003)): 0.125 µg/mL (≈ 0.276 µM)
MIC (Neisseria gonorrhoeae, strain CDC58 (GCREF2013 004)): 0.25 µg/mL (≈ 0.551 µM)
MIC (Neisseria gonorrhoeae, strain CDC59 (GCREF2013 044)): 0.25 µg/mL (≈ 0.551 µM)
MIC (Neisseria gonorrhoeae, strain CDC60 (GCREF2013 005)): 0.125 µg/mL (≈ 0.276 µM)
MIC (Neisseria gonorrhoeae, strain CDC61 (GCREF2013 006)): 0.125 µg/mL (≈ 0.276 µM)
MIC (Neisseria gonorrhoeae, strain CDC62 (GCREF2013 007)): 0.25 µg/mL (≈ 0.551 µM)
MIC (Neisseria gonorrhoeae, strain CDC63 (GCREF2013 008)): 0.125 µg/mL (≈ 0.276 µM)
MIC (Neisseria gonorrhoeae, strain CDC64 (GCREF2013 009)): 0.125 µg/mL (≈ 0.276 µM)
MIC (Neisseria gonorrhoeae, strain CDC65 (GCREF2013 010)): 0.125 µg/mL (≈ 0.276 µM)
MIC (Neisseria gonorrhoeae, strain CDC66 (GCREF2013 011)): 0.125 µg/mL (≈ 0.276 µM)
MIC (Neisseria gonorrhoeae, strain CDC67 (GCREF2013 014)): 0.125 µg/mL (≈ 0.276 µM)
MIC (Neisseria gonorrhoeae, strain CDC68 (GCREF2013 016)): 0.063 µg/mL (≈ 0.139 µM)
MIC (Neisseria gonorrhoeae, strain CDC69 (GCREF2013 017)): 0.063 µg/mL (≈ 0.139 µM)
MIC (Neisseria gonorrhoeae, strain CDC70 (GCREF2013 018)): 0.125 µg/mL (≈ 0.276 µM)
MIC (Neisseria gonorrhoeae, strain CDC71 (GCREF2013 019)): 0.016 µg/mL (≈ 0.0353 µM)
MIC (Neisseria gonorrhoeae, strain CDC72 (GCREF2013 020)): 0.25 µg/mL (≈ 0.551 µM)
MIC (Neisseria gonorrhoeae, strain CDC73 (GCREF2013 021)): 0.125 µg/mL (≈ 0.276 µM)
MIC (Neisseria gonorrhoeae, strain CDC74 (GCREF2013 022)): 0.125 µg/mL (≈ 0.276 µM)
MIC (Neisseria gonorrhoeae, strain CDC75 (GCREF2013 023)): 0.125 µg/mL (≈ 0.276 µM)
MIC (Neisseria gonorrhoeae, strain CDC76 (GCREF2013 024)): 0.125 µg/mL (≈ 0.276 µM)
MIC (Neisseria gonorrhoeae, strain CDC77 (GCREF2013 025)): 0.125 µg/mL (≈ 0.276 µM)
MIC (Neisseria gonorrhoeae, strain CDC78 (GCREF2013 026)): 0.063 µg/mL (≈ 0.139 µM)
MIC (Neisseria gonorrhoeae, strain CDC79 (GCREF2013 027)): 0.125 µg/mL (≈ 0.276 µM)
MIC (Neisseria gonorrhoeae, strain CDC80 (GCREF2013 028)): 0.125 µg/mL (≈ 0.276 µM)
MIC (Neisseria gonorrhoeae, strain CDC81 (GCREF2013 029)): 0.25 µg/mL (≈ 0.551 µM)
MIC (Neisseria gonorrhoeae, strain CDC82 (GCREF2013 031)): 0.125 µg/mL (≈ 0.276 µM)
MIC (Neisseria gonorrhoeae, strain CDC83 (GCREF2013 032)): 0.125 µg/mL (≈ 0.276 µM)
MIC (Neisseria gonorrhoeae, strain CDC84 (GCREF2013 033)): 0.125 µg/mL (≈ 0.276 µM)
MIC (Neisseria gonorrhoeae, strain CDC86 (GCREF2013 035)): 0.125 µg/mL (≈ 0.276 µM)
MIC (Neisseria gonorrhoeae, strain CDC87 (GCREF2013 036)): 0.25 µg/mL (≈ 0.551 µM)
MIC (Neisseria gonorrhoeae, strain CDC88 (GCREF2013 037)): 0.125 µg/mL (≈ 0.276 µM)
MIC (Neisseria gonorrhoeae, strain CDC89 (GCREF2013 038)): 0.125 µg/mL (≈ 0.276 µM)
MIC (Neisseria gonorrhoeae, strain CDC90 (GCREF2013 039)): 0.125 µg/mL (≈ 0.276 µM)
MIC (Neisseria gonorrhoeae, strain CDC91 (GCREF2013 040)): 4 µg/mL (≈ 8.82 µM)
MIC (Neisseria gonorrhoeae, strain CDC92 (GCREF2013 041)): 0.125 µg/mL (≈ 0.276 µM)
MIC (Neisseria gonorrhoeae, strain CDC93 (GCREF2013 042)): 0.125 µg/mL (≈ 0.276 µM)
MIC (Neisseria gonorrhoeae, strain CDC94 (GCREF2013 043)): 0.125 µg/mL (≈ 0.276 µM)
MIC (Neisseria gonorrhoeae, strain CDC95 (GCREF2013 045)): 0.25 µg/mL (≈ 0.551 µM)
MIC (Neisseria gonorrhoeae, strain CDC96 (GCREF2013 046)): 0.125 µg/mL (≈ 0.276 µM)
MIC (Neisseria gonorrhoeae, strain CDC97 (GCREF2013 047)): 0.125 µg/mL (≈ 0.276 µM)
MIC (Neisseria gonorrhoeae, strain CDC98 (GCREF2013 048)): 0.125 µg/mL (≈ 0.276 µM)
MIC (Neisseria gonorrhoeae, strain CDC99 (GCREF2013 012)): 0.125 µg/mL (≈ 0.276 µM)
MIC (Neisseria gonorrhoeae, strain CDC100 (GCREF2013 015)): 0.25 µg/mL (≈ 0.551 µM)
MIC50 (Neisseria gonorrhoeae, 96 clinical isolates, read-out: MIC50): 0.125 µg/mL (≈ 0.276 µM)
MIC90 (Neisseria gonorrhoeae, 96 clinical isolates, read-out: MIC90): 0.25 µg/mL (≈ 0.551 µM)
SMILES: C=CC1=C(C(=O)O)N2C(=O)[C@@H](NC(=O)/C(=N\OCC(=O)O)c3csc(N)n3)[C@H]2SC1 [Cfx, cefixime]
